Results published in ChEMBL document CHEMBL6096676, “TarIKGC: A Target Identification Tool Using Semantics-Enhanced Knowledge Graph Completion with Application to CDK2 Inhibitor Discovery” (J Med Chem, 2025).

How the values were obtained:
[1] = tested on: SW-620; experiment: Antiproliferative activity against human SW620 cells measured after 48 to 72 hrs by CCK-8 method
[2] = Antiproliferative activity against HEK293T cells measured after 48 to 72 hrs by CCK-8 method; details: human
[3] = tested on: Huh-7; experiment: Antiproliferative activity against human Huh-7 cells measured after 48 to 72 hrs by CCK-8 method
[4] = tested on: MKN-28; experiment: Antiproliferative activity against human MKN-28 cells measured after 48 to 72 hrs by CCK-8 method
[5] = Antiproliferative activity against human THLE-2 cells measured after 48 to 72 hrs by CCK-8 method
[6] = tested on: PC-9; experiment: Antiproliferative activity against human PC-9 cells measured after 48 to 72 hrs by CCK-8 method
[7] = tested on: AGS; experiment: Antiproliferative activity against human AGS cells measured after 48 to 72 hrs by CCK-8 method

COc1ccc(CNc2nc(N(CCO)CCO)nc3c2ncn3C(C)C)cc1 showed an IC50 [1] of 2.07 µM, an IC50 [2] of 11.5 µM and an IC50 [3] of 5.78 µM. The IC50 [4] was 8.73 µM, the IC50 [5] was 15 µM and the IC50 [6] was 7.28 µM. It also gave an IC50 [7] of 6.84 µM.
